# Laboratory results from patent publication US6472198B1, “Slow release substrates for driving microbial transformations of environmental contaminants” (The State of Oregon Acting by and through the State Board …, priority 1998, dated 2002).
# “Also recorded” adds a separate entry of the source.
# What was measured:
# [1] = Hydrolysis period of slow release compounds in bioremediation studies; type: physicochemical; conditions: TBOS to 1-butanol, TPOS to phenol
# From the text: These alcohols can then be used by the microorganisms to cometabolize halogenated organics, such as TCE, for example. As discussed in the Examples below, the decrease in TBOS in a poisoned (killed) control compared similarly to the nonpoisoned (live) microbially active system under anaerobic conditions. Microbial activity was indicated by the production of acetate, butanol, butyrate, and hydrogen in the live microcosms, and the lack of production in the poisoned control. […] Thus, TBOS is not directly degraded, but is first hydrolyzed by reactions with water to form 1-butanol, which can then be used to drive the aerobic cometabolism of chlorinated organics.
# [2] = tested on: Pt. Mugu groundwater and aquifer solids microcosm; test: Anaerobic reductive dechlorination of TCE in Pt. Mugu microcosm amended with TBOS; type: cell-based; conditions: for incubation time after which dechlorination of the substance was observed: TCE 5 mg/L, Pt. Mugu microcosm
# [3] = Abiotic hydrolysis of TBOS and TKEBS in sterilized pH buffered solutions; type: physicochemical; conditions: for effect of temperature on hydrolysis: pH 7, 10 mg/L, 15 °C vs 30 °C; for factor of increase in rate of hydrolysis on ten-fold increase in concentration: pH 7, 30 °C, 10 mg/L to 100 mg/L
# [4] = Solubility in water (statement); type: physicochemical
# [5] = tested on: microbial culture grown on TBOS; test: Aerobic cometabolism of TCE by microorganisms grown on TBOS; type: cell-based
# Experimental: (§1) Gas phase TCE and cis-DCE concentrations were measured by injecting 10-100 μL of a gaseous sample into a HP-5890 gas chromatograph connected to a photoionization detector (PID) followed by a flame ionization detector (FID). Chromatographic separation was carried-out with a 30-m megabore GSQ-PLOT column from J&W Scientific (Folsom, Calif.). The GC operating conditions were as follows: injector temperature, 250° C.; detector temperature: 280° C.; the column was initially maintained at 40° C. for 2 minutes and then heated to 220° C. at 15° C./minute.
# The microcosms for aerobic cometabolism studies were carried out as described in Example 1 under the heading “Aerobic Biodegradation.” The bacterial culture used was that described in Example 1 under the heading “Enrichment of Aerobic Culture.” cis-DCE and TCE stocks in water were prepared by saturating distilled water with cis-DCE and TCE at 30° C. TCE and cis-DCE dissolved in the water to their solubility limit. The aqueous phase from these stocks was then added to the microcosms to yield the required concentrations (0.8 mg/L for TCE and 2 mg/L for cis-DCE). TBOS was introduced into the microcosms by injecting pure TBOS liquid using a microliter syringe.
# Microbial culture from the wastewater treatment plant of Corvallis, Oregon grown on TBOS was tested for its ability to cometabolize TCE and cis-DCE. Microcosms were constructed with 4.0 mg (dry weight) of culture enriched from a continuous-feed batch reactor according to the procedure described in Example 1. Three microcosms and a control were evaluated: a poisoned control (i.e., a killed microcosm) with TBOS and TCE; a biologically active microcosm with TBOS and TCE; and a resting cell microcosm with only TCE; and an acetylene block microcosm with TBOS and TCE (having acetylene in the head space). The acetylene block experiment was used to investigate the presence of a monooxygenase enzyme.
# [6] = tested on: indigenous microorganisms in groundwater (Lawrence Livermore Site 300); test: Anaerobic reductive dechlorination of TCE in Site 300 groundwater microcosms containing TKEBS; type: cell-based
# Experimental: In initial studies, groundwater from Lawrence Livermore Laboratory(Site 300, D3 Well) was used to make up six different microcosms. Two of these microcosms were sterilized to form controls, one by the addition of mercuric chloride and the other by autoclaving. Two microcosms were amended with sodium benzoate (200 mg/L) as an additional carbon source and the last two were left untouched.
# Later experiments were carried out to re-evaluate the anaerobic TCE transformation rates driven by TKEBS transformation. The culture used for these biodegradation studies were indigenous microorganisms stimulated from the groundwater (as described in Example 1) collected from the same site initially studied. The anaerobic biodegradation studies were carried out using 1L media bottles. The microcosms were prepared in an anaerobic glove box and then purged using treated (to remove oxygen) nitrogen to remove the hydrogen and carbon dioxide introduced into the microcosms from the glove box.
# The groundwater was purged with treated nitrogen to remove all traces of TCE and cis-DCE prior to re-injection of TCE. Pure TCE was added to obtain concentrations of 100 mg/L(aqueous). […] The microcosms were analyzed for chlorinated ethenes, hydrogen, carbon dioxide, alcohols, and their fermentation products.
# [7] = tested on: microbially active Site 300 groundwater microcosm; test: Reductive dechlorination of TCE in Site 300 groundwater microcosm with TBOS and TKEBS added; type: cell-based; conditions: TCE additions at 0, 135, 160 days
# Experimental: The TCE dechlorination experiments were conducted in the same way as described in Example 3. In these experiments, however, TBOS and TKEBS were amended to samples of the groundwater microcosms.
# Shown in FIGS. 11a-11c is a microbial active version of a Site 300 microcosm with TBOS and TKEBS added. However in this case both ethybutanol and butanol are utilized, compared to the poisoned control where they accumulated. Acetate, butyrate and hydrogen are produced as a result of fermentation reactions. […] Three additions of TCE are transformed at 0, 135, and 160 days, with the corresponding increases in c-DCE occurring. Hydrogen is shown to be utilized upon TCE addition and produced once TCE transformation has stopped.
# [8] = tested on: microbial culture grown on TBOS; conditions: cited from earlier work
# [9] = tested on: microbial culture grown on TBOS; test: Aerobic cometabolism of cis-DCE by microorganisms grown on TBOS; type: cell-based; conditions: biologically active microcosm
# Experimental: as §1
# The microcosms for aerobic cometabolism studies were carried out as described in Example 1 under the heading “Aerobic Biodegradation.” The bacterial culture used was that described in Example 1 under the heading “Enrichment of Aerobic Culture.” cis-DCE and TCE stocks in water were prepared by saturating distilled water with cis-DCE and TCE at 30° C. TCE and cis-DCE dissolved in the water to their solubility limit. […]
# The microbial culture grown on TBOS was tested for its ability to cometabolize cis-DCE. […] Four microcosms and two controls were evaluated: a poisoned control with TBOS and cis-DCE; an autoclaved control with TBOS and cis-DCE; two biologically active microcosms with TBOS and cis-DCE; a resting cell microcosm with only cis-DCE; and an acetylene block microcosm with TBOS and cis-DCE.
# [10] = Hydrolysis rate category of organosilanes and organosiloxanes, approximately based on half lives; type: physicochemical; design: key: Slow - 1 month; Very Slow - Several months; Very Fast - days; Fast - weeks
# [11] = pH 7.8 (site groundwater), 30 °C, 10 mg/L
# [12] = organosilanes, Table 1, rates approximately based on half lives
# [13] = organosiloxanes, Table 2, key given under Table 1
compound,measurement,setting,value
"CCCCO[Si](OCCCC)(OCCCC)OCCCC [No. 2, Tetrabutoxysilane]",period over which hydrolysis to the alcohol occurs,[1],two month
same,duration of TCE transformation resulting from addition of only TBOS,[2]; TBOS 1 g/L added at start of test,over 500 days
same,persistence of TBOS in the microcosm,"[2]; anaerobic Pt. Mugu microcosm, TBOS 1 g/L",over 450 days
same,1-butanol formed per TBOS hydrolyzed,"[3]; 30 °C, 10 mg/L",4 moles of 1-butanol per mole of TBOS
same,rate of transformation at pH 5 and pH 9 compared to pH 7,"[3]; 30 °C, 10 mg/L",increased by a factor of two
same,Rates of Hydrolysis Based on 1-butanol production,"[3]; pH 5.0, 30 °C, 10 mg/L",0.19 µmol/day
same,Rates of Hydrolysis Based on TBOS degradation,"[3]; pH 5.0, 30 °C, 10 mg/L",-0.160 µmol/day
same,effect of temperature on hydrolysis,[3],Very little increase
same,Rates of Hydrolysis Based on 1-butanol production,"[3]; pH 7.0, 15 °C, 10 mg/L",0.08 µmol/day
same,Rates of Hydrolysis Based on TBOS degradation,"[3]; pH 7.0, 15 °C, 10 mg/L",-0.060 µmol/day
same,Rates of Hydrolysis Based on 1-butanol production,"[3]; pH 7.0, 30 °C, 10 mg/L",0.08 µmol/day
same,Rates of Hydrolysis Based on TBOS degradation,"[3]; pH 7.0, 30 °C, 10 mg/L",-0.062 µmol/day
same,factor of increase in rate of hydrolysis on ten-fold increase in concentration,[3],4
same,Rates of Hydrolysis Based on 1-butanol production,"[3]; pH 7.0, 30 °C, 100 mg/L",0.26 µmol/day
same,Rates of Hydrolysis Based on TBOS degradation,"[3]; pH 7.0, 30 °C, 100 mg/L",-0.208 µmol/day
same,Rates of Hydrolysis Based on 1-butanol production,[3]; [11],0.16 µmol/day
same,Rates of Hydrolysis Based on TBOS degradation,[3]; [11],-0.110 µmol/day
same,Rates of Hydrolysis Based on 1-butanol production,"[3]; pH 9.0, 30 °C, 10 mg/L",0.22 µmol/day
same,Rates of Hydrolysis Based on TBOS degradation,"[3]; pH 9.0, 30 °C, 10 mg/L",-0.151 µmol/day
same,solubility,[4],very low
"CCC(CC)CO[Si](OCC(CC)CC)(OCC(CC)CC)OCC(CC)CC [No. 3, Tetrakis(2-ethylbutoxy) silane]",rate of hydrolysis compared with TBOS,[3]; listed as TKEBS,much slower rate; also recorded: about an order of magnitude lower
same,Rates of Hydrolysis Based on 2-ethyl-butanol production,"[3]; pH 5.0, 30 °C, 10 mg/L",0.023 µmol/day
same,effect of temperature on hydrolysis,[3],Very little increase
same,Rates of Hydrolysis Based on 2-ethyl-butanol production,"[3]; pH 7.0, 15 °C, 10 mg/L",0.011 µmol/day
same,Rates of Hydrolysis Based on 2-ethyl-butanol production,"[3]; pH 7.0, 30 °C, 10 mg/L",0.012 µmol/day
same,factor of increase in rate of hydrolysis on ten-fold increase in concentration,[3],10
same,Rates of Hydrolysis Based on 2-ethyl-butanol production,"[3]; pH 7.0, 30 °C, 100 mg/L",0.105 µmol/day
same,Rates of Hydrolysis Based on 2-ethyl-butanol production,[3]; [11],0.011 µmol/day
same,Rates of Hydrolysis Based on 2-ethyl-butanol production,"[3]; pH 9.0, 30 °C, 10 mg/L",0.022 µmol/day
"c1ccc(O[Si](Oc2ccccc2)(Oc2ccccc2)Oc2ccccc2)cc1 [No. 4, Tetraphenoxysilane]",period over which hydrolysis to the alcohol occurs,[1],weeks
"ClC=C(Cl)Cl [TCE, Trichloroethylene]",incubation time after which dechlorination of the substance was observed,[2]; TBOS 1 g/L,40 days
same,TCE transformation in acetylene-blocked microcosm,"[5]; TBOS and TCE, acetylene in head space, in 140 hours",about 20%
same,time to complete cometabolism of TCE,"[5]; TCE 0.89 mg/L (1.6 μmol), microcosm with TBOS 20 mg/L added",≤ 65 h
same,"TCE cometabolism by resting cells, less than that achieved with TBOS addition","[5]; resting cells, no TBOS added",15-20%
same,anaerobic TCE transformation in initial experiments (in words),"[6]; 125 mL serum bottles, groundwater microcosms",complete transformation of TCE to cis-DCE
same,time for dechlorination of TCE to cis-DCE,"[6]; TCE 100 mg/L, September '97 groundwater containing TKEBS and 2-ethylbutanol, 30 °C",14 days
same,TCE transformation (in words),[7],rapidly transformed to c-DCE
"C=CCl [VC, vinyl chloride]",incubation time after which dechlorination of the substance was observed,[2]; TBOS 1 g/L,about 125 days
Cl[C@@H]1O[C@@H]1Cl [cis-DCE epoxide],half-life of abiotic transformation of cis-DCE epoxide,[8],70 h
same,half-life of cis-DCE epoxide transformation,[9],about 35 hours
"Cl/C=C\Cl [cis-DCE, cis-dichloroethylene]",incubation time after which dechlorination of the substance was observed,[2]; TBOS 1 g/L,about 90 days
"CCCO[Si](OCCC)(OCCC)OCCC [compound 1, Tetrapropoxysilane]",Hydrolysis rate,[10]; [12],Slow (Slow - 1 month)
"CCCCO[Si](OCCCC)(OCCCC)OCCCC [compound 2, Tetrabutoxysilane]",Hydrolysis rate,[10]; [12],Slow (Slow - 1 month)
"CCC(CC)CO[Si](OCC(CC)CC)(OCC(CC)CC)OCC(CC)CC [compound 3, Tetrakis(2-ethylbutoxy) silane]",Hydrolysis rate,[10]; [12],Very Slow
"CC(=O)O[Si](OC(C)=O)(OC(C)=O)OC(C)=O [compound 5, Silicon tetraacetate]",Hydrolysis rate,[10]; [12],Very Fast
"CCC(=O)O[Si](OC(=O)CC)(OC(=O)CC)OC(=O)CC [compound 6, Silicon tetrapropionate]",Hydrolysis rate,[10]; [12],Fast
"CCCC(=O)O[Si](OC(=O)CCC)(OC(=O)CCC)OC(=O)CCC [compound 7, Silicon tetrabutyrate]",Hydrolysis rate,[10]; [12],Fast
"C=CCO[Si](OCC=C)(OCC=C)OCC=C [compound 11, Tetraallyloxy silane]",Hydrolysis rate,[10]; [12],Slow (Slow - 1 month)
"CCC(C)CO[Si](OCC(C)CC)(OCC(C)CC)OCC(C)CC (stereo not drawn) [compound 13, Tetrakis(2-methylbutoxy) silane]",Hydrolysis rate,[10]; [12],Very Slow
"CCC(C)O[Si](OC(C)CC)(OC(C)CC)OC(C)CC (stereo not drawn) [compound 14, Tetrakis(1-methylpropoxy) silane]",Hydrolysis rate,[10]; [12],Slow (Slow - 1 month)
"CC(C)CO[Si](OCC(C)C)(OCC(C)C)OCC(C)C [compound 15, Tetrakis(2-methylpropoxy) silane]",Hydrolysis rate,[10]; [12],Slow (Slow - 1 month)
"CC(C)O[Si](OC(C)C)(OC(C)C)OC(C)C [compound 18, Tetrakis(1-methylethoxy) silane]",Hydrolysis rate,[10]; [12],Slow (Slow - 1 month)
CCO[Si](OCC)(OCC)O[Si](OCC)(OCC)OCC [compound 19],Hydrolysis rate,[10]; [13],Slow (Slow - 1 month)
CCCO[Si](OCCC)(OCCC)O[Si](OCCC)(OCCC)OCCC [compound 20],Hydrolysis rate,[10]; [13],Slow (Slow - 1 month)
CCCCO[Si](OCCCC)(OCCCC)O[Si](OCCCC)(OCCCC)OCCCC [compound 21],Hydrolysis rate,[10]; [13],Slow (Slow - 1 month)
c1ccc(O[Si](Oc2ccccc2)(Oc2ccccc2)O[Si](Oc2ccccc2)(Oc2ccccc2)Oc2ccccc2)cc1 [compound 22],Hydrolysis rate,[10]; [13],Slow (Slow - 1 month)
CCO[Si](OCC)(OCC)O[Si](OCC)(OCC)O[Si](OCC)(OCC)OCC [compound 23],Hydrolysis rate,[10]; [13],Slow (Slow - 1 month)
Tetrakis(1-hydroxypropoxy) silane [compound 17],Hydrolysis rate,[10]; [12],Fast
Tetrakis(benzylmethoxy) silane [compound 16],Hydrolysis rate,[10]; [12],Fast
Tetraphenoxysilane [compound 4],Hydrolysis rate,[10]; [12],Very Fast
